Experimental data reported in patent publication US9340577B2, “HLA binding motifs and peptides and their uses” (priority 1992, dated 2016).
No end group written: not given here.

Legend:
Assay in all cases: biochemical
Assay type in all cases: binding
[1] = molecular target: HLA-A*0201 (HLA-A2.1) (Homo sapiens, UniProt P04439, D140Y/D185E/D98H/E176V/E277Q/G131W/G231S/I119V/I121R/I166T/I218V/L300P/L318F/N151K/N90K/P208A/P217A/Q86G/Q94H/R138H/R169H/T345S)
[2] = molecular target: A*0202 (Homo sapiens, UniProt P04439, D140Y/D185E/D98H/E176V/E277Q/G131W/G231S/I119L/I121R/I166T/I218V/L180W/L300P/L318F/N151K/N90K/P208A/P217A/Q67R/Q86G/Q94H/R138H/R169H/T345S)
[3] = molecular target: A*0203 (Homo sapiens, UniProt P04439, A173T/D140Y/D185E/D98H/E277Q/G131W/G231S/I119V/I121R/I166T/I218V/L180W/L300P/L318F/N151K/N90K/P208A/P217A/Q86G/Q94H/R138H/R169H/T345S)
[4] = molecular target: A*0206 (Homo sapiens, UniProt P04439, D140Y/D185E/D98H/E176V/E277Q/F33Y/G131W/G231S/I119V/I121R/I166T/I218V/L300P/L318F/N151K/N90K/P208A/P217A/Q86G/Q94H/R138H/R169H/T345S)
[5] = molecular target: A*6802 (Homo sapiens, UniProt P04439, A269V/D140Y/D185E/E176V/E277Q/E87N/F33Y/G231S/I121R/I166T/I218V/L180W/L300P/L318F/N151K/P208A/P217A/Q86R/R138H/R169H/S129P/T345S/V36M)

Sequence	IC50 [1]	IC50 [2]	IC50 [3]	IC50 [4]	IC50 [5]
FLQSTQELFI [Peptide 9013.0179]	95 nM	3.7 nM	59 nM	1110 nM	> 20000 nM
FLSALKLFL [Peptide 1578.17]	17 nM	2.8 nM	11 nM	45 nM	2150 nM
FLSGCVISYV [Peptide 1578.32]	43 nM	2.7 nM	7.4 nM	67 nM	102 nM
FLSHVKIPV [Peptide 1578.55]	41 nM	4 nM	9.8 nM	91 nM	60 nM
FLSYFKLFL [Peptide 1578.37]	30 nM	2.1 nM	8.6 nM	45 nM	4750 nM
FLVAFKQFL [Peptide 1578.42]	55 nM	0.43 nM	4.7 nM	81 nM	1400 nM
FQFQNPFPL [Peptide 1578.40]	8.4 nM	0.75 nM	3.5 nM	6.3 nM	3160 nM
FQGSVISFV [Peptide 1578.38]	15 nM	1.8 nM	1.8 nM	13 nM	564 nM
FQKYKTLFV [Peptide 1578.54]	1140 nM	821 nM	30 nM	419 nM	> 20000 nM
FQYAQLADV [Peptide 1578.36]	42 nM	3.7 nM	12 nM	32 nM	16900 nM
GLFQQSTQEL [Peptide 9013.0176]	1360 nM	6.2 nM	48 nM	> 20000 nM	> 20000 nM
GLFRVYPEL [Peptide 9013.0039]	43 nM	13 nM	229 nM	1420 nM	> 20000 nM
GLNRTTVTV [Peptide 9013.0066]	109 nM	10 nM	3.8 nM	4730 nM	> 20000 nM
GLQQATPGPA [Peptide 9013.0143]	4870 nM	220 nM	3.9 nM	> 20000 nM	> 20000 nM
GLSAGATVGV [Peptide 9013.0250]	97 nM	2.9 nM	2.8 nM	1100 nM	1150 nM
GLTVGIMIGVL [Peptide 9013.0343]	5010 nM	914 nM	290 nM	11500 nM	2640 nM
GMIDDVTAI [Peptide 1578.44]	23 nM	5.3 nM	7.3 nM	37 nM	> 20000 nM
GMIDDVTPI [Peptide 1578.24]	25 nM	0.2 nM	0.63 nM	24 nM	> 20000 nM
GTQQATPGPV [Peptide 9013.0142]	> 20000 nM	> 20000 nM	36 nM	> 20000 nM	> 20000 nM
HLQVLFIAKI [Peptide 9013.0244]	5930 nM	789 nM	29 nM	121 nM	> 20000 nM
IIQNDTGFYV [Peptide 9013.0146]	155 nM	25 nM	548 nM	201 nM	2600 nM
IIYPNASLLV [Peptide 9013.0144]	466 nM	9.9 nM	4.7 nM	70 nM	830 nM
IIYPNASLV [Peptide 9013.0029]	230 nM	24 nM	4 nM	152 nM	409 nM
ILYPNASLLI [Peptide 9013.0145]	88 nM	1.3 nM	2.8 nM	252 nM	3120 nM
IQGAVISFV [Peptide 1578.13]	45 nM	12 nM	13 nM	35 nM	4880 nM
IQNDTGFYTV [Peptide 9013.0149]	600 nM	20 nM	31 nM	63 nM	8840 nM
IQNDTGFYV [Peptide 9013.0035]	148 nM	16 nM	37 nM	32 nM	4500 nM

Sequence	IC50 [1]	IC50 [2]	IC50 [3]	IC50 [4]	IC50 [5]
IVNTTYLWWV [Peptide 9013.0196]	5940 nM	1440 nM	389 nM	91 nM	71 nM
KLMSQLLNI [Peptide 1578.29]	35 nM	1.6 nM	12 nM	56 nM	> 20000 nM
KLTFLCVTL [Peptide 1516.14]	19 nM	3 nM	41 nM	123 nM	> 20000 nM
KTITVSAEV [Peptide 9013.0083]	971 nM	42 nM	2.6 nM	79 nM	15 nM
LIQPFILYA [Peptide 1578.07]	124 nM	70 nM	46 nM	71 nM	8630 nM
LLFWNPPTTA [Peptide 9013.0123]	25 nM	1.3 nM	1.6 nM	1170 nM	2140 nM
LLIESTPFNVA [Peptide 9013.0268]	121 nM	3.3 nM	3.5 nM	107 nM	> 20000 nM
LLLSNDNRTL [Peptide 9013.0205]	8190 nM	303 nM	4180 nM	> 20000 nM	> 20000 nM
LLLSNGNRTL [Peptide 9013.0227]	1550 nM	158 nM	412 nM	3990 nM	> 20000 nM
LLLTASLLV [Peptide 9013.0002]	28 nM	1330 nM	293 nM	79 nM	> 20000 nM
LLTFWNPPTV [Peptide 9013.0120]	170 nM	10 nM	3.2 nM	1000 nM	607 nM
LQGSVICFV [Peptide 1578.06]	23 nM	33 nM	21 nM	52 nM	3560 nM
LQLSNDNRTLV [Peptide 9013.0307]	12800 nM	1390 nM	5200 nM	99 nM	> 20000 nM
LTFWNPPTTV [Peptide 9013.0122]	210 nM	38 nM	1.9 nM	339 nM	23 nM
MAFEYALLA [Peptide 1578.09]	226 nM	52 nM	74 nM	100 nM	29 nM
MTRNPPVPV [Peptide 1539.02]	9170 nM	1140 nM	35 nM	> 20000 nM	117 nM
MTSNPAIPV [Peptide 1539.03]	1470 nM	951 nM	68 nM	911 nM	2 nM
NLAEGKEVL [Peptide 9013.0016]	3840 nM	14 nM	293 nM	> 20000 nM	> 20000 nM
NLNLSCHAV [Peptide 9013.0054]	633 nM	15 nM	39 nM	7130 nM	2200 nM
NVAEGKEVV [Peptide 9013.0015]	> 20000 nM	1310 nM	4750 nM	> 20000 nM	354 nM
PLYSWRINGI [Peptide 9013.0236]	> 20000 nM	348 nM	14 nM	> 20000 nM	> 20000 nM
PQYSWRINGV [Peptide 9013.0235]	> 20000 nM	1330 nM	25 nM	> 20000 nM	> 20000 nM
QITPLCVTL [Peptide 1516.13]	976 nM	124 nM	4390 nM	634 nM	2870 nM
QLHTQELFI [Peptide 9013.0079]	832 nM	25 nM	264 nM	11700 nM	19100 nM
QLHTQVLFIA [Peptide 9013.0242]	3940 nM	322 nM	163 nM	> 20000 nM	> 20000 nM
QLSNGNRTL [Peptide 9013.0050]	16100 nM	39 nM	43 nM	> 20000 nM	8650 nM
